According to patent publication US20220168384A1, “Anti-Bacterial Combination Therapy” (McMaster University, priority 2019, published 2022):
Entries after “also recorded” stand apart in the source; their conditions may differ.

Columns and labels:
[1] = Qualitative assay for antibiotic-Fe3+ coloured complexes; assay type: physicochemical; settings: stock antibiotic + FeCl3 final 10 μM; room temperature 1 h
Method: […]. Binding of iron by a compound causes spectral shifts that can detected visually. Five μL of stock concentration antibiotic was added to 5 μL of FeCl3 to a final FeCl3 concentration of 10 μM and incubated at room temperature for one hour. Negative controls without iron are indicated by a negative sign and droplets with FeCl3 are indicated with a positive sign; vehicle controls with Milli-Q H2O and DMSO were included.
Compounds were arrayed in Nunc 96 microwell plates. Vehicle controls contained Milli-Q H2O with 1:75 dilution of each compound at a final concentration of […]. The experimental set-up contained the same components as the vehicle control, with the addition of […] FeCl3. The final volume in each well was 150 μL. The plate was incubated at room temperature for one hour and absorption spectra from 300 nm to 700 nm was read in 2 nm increments (Multiskan Go—Thermo Fisher Scientific). […]

[2] = UV-Vis absorption spectra assay for iron chelation; assay type: physicochemical; settings: 300 μM compound and FeCl3; 300-700 nm; 1 h
Method: Equimolar concentrations of compound and FeCl3 were added in deionized H2O to a final concentration of 300 μM and a spectrum of wavelengths from 300 nm to 700 nm read after 1 h incubation at room temperature. The black dashed line is the spectrum of the compound in the absence of iron. The black solid line is the spectrum after the addition of iron. […] Chloramphenicol and ampicillin were used as negative controls. Each assay was performed at least 3 times and averaged values are shown.
Compounds were arrayed in Nunc 96 microwell plates. Vehicle controls contained Milli-Q H2O with 1:75 dilution of each compound at a final concentration of […]. The experimental set-up contained the same components as the vehicle control, with the addition of […] FeCl3. The final volume in each well was 150 μL. The plate was incubated at room temperature for one hour and absorption spectra from 300 nm to 700 nm was read in 2 nm increments (Multiskan Go—Thermo Fisher Scientific).

P. aeruginosa PAO1 = assay: Checkerboard assays of TS with DFP, DSX or 10% serum; assay type: cell-based, Pseudomonas aeruginosa; settings: 10:90
Method: Human serum (Corning) and mouse serum (Equitech-Bio) were stored at −20° C. Sera were aliquoted into 5-ml culture tubes by thawing once at 37° C. for 30 min with occasional gentle mixing. Culture tubes were frozen at −20° C. until use. To make 10% serum solutions, serum was thawed for 10 min at 37° C. and then heat inactivated at 57° C. for 30 min. Two milliliters of heat-inactivated serum were added to 18 ml of 10:90 medium and gently mixed. This 10% serum solution was used for checkerboard assays.
(§1) Checkerboard assays were set-up using Nunc 96-well plates in an 8-well by 8-well format. Two columns were allocated for vehicle controls and two columns for sterility controls. Vehicle controls contained 2 μL DMSO plus 2 μL DFP solvent for checkerboards with TS and DFP or 4 μL DMSO for TS and DSX, in 146 μL of 10:90 medium or 10% serum inoculated with PA14 or PAO1-KP as described in Growth Curves. Sterile controls contained the same components in 10:90 medium or 10% serum, without cells. Serial dilutions of TS—with 17 μg/mL being the highest final concentration—were added along the y axis of the checkerboard (increasing concentration from bottom to top) whereas serial dilutions of DFP or DSX—with 512 μg/mL being the highest final concentration—were added along the x axis (increasing concentration from left to right). The final volume of each well was 150 μL and each checkerboard was repeated at least three times. Plates were incubated and the final OD600 determined as detailed above.

P. aeruginosa PA14 [3] = assay: Dose response and checkerboard assays against PA14; assay type: cell-based, Pseudomonas aeruginosa; settings: PA14; for interaction with DSX: 2D checkerboard; for one-eighth of MIC against PA14 (test concentration): Pseudomonas aeruginosa, concentration used in clinical isolate testing, read-out: ⅛^th the MIC of PA14; for effect of 100 μM Fe^3+ on inhibitory activity: VAN + compound checkerboards; for synergy with TS: IC50 isobolograms, 10:90; for relative potency of synergy with TS: checkerboards, isobolograms and CI values
Method: as §1
Culture conditions, growth assays, dose response and checkerboard assays using P. aeruginosa PA14 were performed as described in Example 1. Briefly, overnight cultures were grown in LB for 16 h, 37° C., 200 rpm then subcultured (1:500 dilution) into 10:90 for 6 h. Subcultures were standardized to OD600 of 0.10 and diluted 1:500 in fresh 10:90 before use. For the dose response assay, serial dilutions of compounds were added at 75 times the final concentration and diluted with 10:90 with cells to reach the desired final concentration. This was done in triplicate for technical replicates. Vehicle and sterile controls were included. The checkerboard assay was done similarly to the dose response assay but in an 8×8 format in a 96-well Nunc plate, with concentration of one drug increasing along the y-axis and the other along the x-axis. Sterility and vehicle controls were included with two columns allocated for each control. At least three biological replicates were repeated for the dose response and checkerboard assays.

[4] = system: P. aeruginosa clinical isolates; assay: Clinical isolates testing, P. aeruginosa; assay type: cell-based, Pseudomonas aeruginosa
Method: (§2) Clinical isolates of P. aeruginosa and A. baumannii were inoculated from −80° C. stocks into 200 μL LB broth and grown with shaking at 200 rpm, 16 h, 37° C. in Nunc 96-well plates. The overnight cultures were subcultured (1:25 dilution) into 10:90 and grown with shaking at 200 rpm, 2 h, 37° C. Vehicle controls consisted of 4 μL of DMSO, 144 μL 10:90 and 2 μL of subculture. Sterile controls consisted of 4 μL of DMSO and 146 μL 10:90. […]. The final volume of each well was 150 μL and each checkerboard was repeated at least three times. Plates were incubated with shaking at 200 rpm, 16 h, 37° C. and OD600 was measured (Multiskan Go—Thermo Fisher Scientific). The results were plotted as percent of control (wells containing only DMSO) using Prism (GraphPad).
(§3) Clinical isolates were grown and tested as described in Example 1. Briefly, clinical isolates were inoculated from glycerol stocks stored at −80° C. into Nunc 96-well plates and grown overnight at 37° C., for 16 h with shaking in LB (200 rpm). Overnights were subcultured (1:25) into fresh 10:90 medium and grown for 2 h under the same growth conditions. Subcultures were diluted 1:75 in fresh 10:90. Compounds were diluted 1:75 to obtain the final concentration. DOXY and CLI were added at a final concentration of 1 μg/mL, CO was used at 2 μg/mL, TRO was used at 4 μg/mL, TS was used at 8.3 μg/mL, and DSX was used at 32 μg/mL. Vehicle and sterility controls were included. Plates were incubated overnight with the same conditions. The OD600 was read (Multiscan Go—Thermo Fisher Scientific), analyzed using Excel, and the data plotted using Prism (GraphPad).
(§4) Culture conditions, checkerboard assays using P. aeruginosa PA14 and dose-response assays were performed as described in Example 1. In addition to TS, other thiopeptides tested were siomycin A (SM), thiocillin I (TC), micrococcin P1 (MC), nosiheptide (NH), berninamycin A (BER), and geninthiocin A (GEN). For dose response assays of the combinations conducted in 10:90, DSX concentration was constant at 64 μg/mL.

P. aeruginosa PA14 [5] = assay: Checkerboards pinned to LB agar (bactericidal activity); assay type: cell-based, Pseudomonas aeruginosa; settings: overnight 37° C.
Method: Checkerboards were pinned to LB agar plates using a sterile 96 pin tool. Plates were incubated overnight at 37° C. Independent experiments were conducted 3 times and a representative plate is shown.

[6] = Chrome azurol S (CAS) plate assay; assay type: physicochemical; settings: 10 μL of 2 mg/mL; room temperature 1 h
[7] = aqueous media
[8] = system: Acinetobacter baumannii clinical isolates; assay: Clinical isolates testing, A. baumannii; assay type: cell-based; settings: 10:90
Method: as §2, §3, §4

Row | colour change upon addition of FeCl3 [1] | one-eighth of MIC against PA14 (test concentration) (P. aeruginosa PA14 [3]) | decolourization of CAS agar (relative affinity for iron) [6] | concentrations at which the compound precipitated [7] | SMILES | absorption spectrum after addition of FeCl3 [2] | effect of chelator on TS activity (P. aeruginosa PAO1; checkerboard with TS) | activity of chelator on its own against P. aeruginosa (P. aeruginosa PAO1; checkerboard, up to 512 μg/ml) | interaction with DSX (P. aeruginosa PA14 [3]) | effect of 100 μM Fe^3+ on inhibitory activity (P. aeruginosa PA14 [3]) | synergy with TS (P. aeruginosa PA14 [3]; checkerboard) | interaction with GN (P. aeruginosa PA14 [3]; checkerboard) | relative potency of synergy with TS (P. aeruginosa PA14 [3]) | growth of C0379, triple combinations with TS+DSX at higher concentrations of the compound ([4]; TS 8.3 and DSX 32 μg/mL) | mode of activity of compound alone (P. aeruginosa PA14 [5]) | growth of C0379 with CLI at 8 μg/mL ([4]; TS 8.3 and DSX 32 μg/mL where combined) | susceptibility of A. baumannii strain C0286 [8]
1 | dark red/violet |  |  |  | Cc1c(O)c(=O)ccn1C [DFP, deferiprone] | shifted | potentiated TS activity | neither chelator had activity |  |  |  |  |  |  |  |  | 
2 |  | 2 µg/mL | greatest decolourization |  | Cc1cc(C2CCCCC2)n(O)c(=O)c1 [CO, Ciclopirox Olamine] | showed shifts in their absorption spectra |  |  | indifferent | abrogated | synergized | antagonism | most potent synergy; also recorded: greater synergy | could inhibit its growth | bacteriostatic |  | 
3 |  | 1 µg/mL | Decolourization was not observed | above 8 μg/mL | Oc1c(I)cc(Cl)c2cccnc12 [CLI, Clioquinol] |  |  |  | antagonism | abrogated | synergized |  | most potent synergy |  | bacteriostatic | did not reduce growth below MIC | susceptible
